Measurements reported in patent publication US20040082558A1, “Administration of estradiol metabolites for inhibition of drug-induced nephrotoxicity” (priority 2002, published 2004).
Marks after values point to notes of the source that are not given here.

How the values were obtained:
Assay type in all cases: in vivo, rat
[1] = tested on: PAN-treated rats; assay: Mortality during 12-week treatment of PAN-treated rats
Description: (§1) After baseline metabolic parameters were measured, animals were randomly assigned to receive subcutaneous saline (3 ml/kg; Control group, n=9) or puromycin aminonucleoside (PAN) (75 mg/kg; drug-induced nephrotoxic animals, n=26). PAN is a drug widely used to produce drug-induced nephrotoxicity in laboratory animals. Grond, J., et al., Contributions to Nephrology 60:83 (1988), the disclosure of which is incorporated herein by reference. Injections of PAN (20 mg/kg) were repeated after 2, 4, 8 and 10 weeks of treatment. Three hours after the initial injections, control animals were implanted with osmotic minipumps (model 2ML4, Alza, Palo Alto, Calif.) containing vehicle (polyethylene glycol 400, 2.5 μl/hour), whereas PAN-treated animals were implanted with osmotic minipumps containing either vehicle (PAN group, n=13) or 2-hydroxyestradiol (10 μg/kg/hour, PAN+2OHE group, n=13). Assignment to the PAN and PAN+2OHE groups was random. Six animals in the PAN group and 2 animals in the PAN+2OHE group died during the treatment, and these animals were not used in the final data analysis.

[2] = tested on: PAN-nephropathic rats; assay: Plasma testosterone radioimmunoassay; conditions: 12 weeks of treatment, male rats
Description: An aliquot of mid-point blood sample drawn during the first clearance period was used for testosterone measurements. Plasma testosterone levels were determined by radioimmunoassay using a commercial kit provided by ICN Biomedicals, Inc. (Costa Mesa, Calif.) according to the protocol of the manufacturer.

[3] = tested on: collagen IV; assay: Glomerular immunohistochemical staining for collagen IV, quantitative image analysis; conditions: 12 weeks of treatment, kidney sections
Description: (§2) Animals were killed by an overdose of anesthetic and kidneys were removed and weighed. One kidney was fixed in 10% formalin buffer and the second kidney was quick-frozen in liquid nitrogen and stored at −70° C. Kidney tissue samples were sectioned and processed into paraffin blocks for light microscopy. For labeling of collagen IV, renal cortical segments (5 μm) were incubated overnight at 4° C. with rabbit anti-mouse collagen IV antibody (dilution 1/500 ) obtained from Chemicon International Inc. (Temecula, Calif.). A primary monoclonal mouse antibody ( 1/200 dilution; Dako Corporation, Carpenteria, Calif.) was used to label proliferating cell nuclear antigen (PCNA). […] Nonspecific staining was assessed by replacing the primary antibody with phosphate buffered saline. […] Immunochemical staining for collagen IV and PCNA quantitatively was done with a SAMBA 4000 image analyzer (Image Products International, Chantilly, Va.) using specialized computer software (Immuno-Analysis, version 4.1, Microsoft, Richmond, Wash.), a color video camera and a Compaq computer. […] Ten high power fields (×400) were assessed for staining density or positively marked cells for ED-1. […] Staining intensity of positive areas was also assessed (mean optical density) and a mean quick score was then calculated (mean optical density×labeling index).

[4] = tested on: PAN-nephropathic rats; assay: Metabolic cage measurements (24-hour urine, intake, plasma) in PAN-nephropathic rats
Description: A total of thirty-five, male Sprague Dawley rats (approximately 290 grams) were used. Rats were housed in the University of Pittsburgh Medical Center animal care facility (temperature, 22° C.; light cycle, 12 hours; relative humidity, 55%). Animals were fed Pro Lab RMH 3000 rodent diet (PMI Nutrition Inc., St Louis, Mo.) and were given water ad libitum. Institutional guidelines for animal welfare were followed, and the University of Pittsburgh Institutional Animal Care and Use Committee approved experimental protocols.
Before initiating treatment, and 3, and 6 and 11 weeks into the treatments, animals were placed in metabolic cages and allowed to acclimatize for two days before conducting the 24-hour measurements of urine volume, food and water intake and urinary sodium, potassium, creatinine, and protein excretion. Tail vein blood samples were also taken for measurement of plasma sodium, potassium, albumin and creatinine. Plasma and urine samples were analyzed for sodium and potassium concentrations using a flame photometer (Model IL-943; Instrumentations Laboratory Inc., Lexington, Ma.) and for creatinine concentrations using a creatinine analyzer (Creatinine Analyzer 2, Beckman Instrument, Inc., Fullerton Calif., USA). Total urine proteins were measured by a spectrophotometric assay using bicinchoninic acid reagent (Pierce; Rockford, Ill.) and a modification of Lowry method. Lowry, O. H., et al., J. Biol. Chem. 193: 265 (1951), the disclosure of which is incorporated herein by reference.
as §1

[5] = tested on: proliferating cell nuclear antigen (PCNA); assay: Glomerular immunohistochemical staining for PCNA, quantitative image analysis; conditions: 12 weeks of treatment, kidney sections
Description: as §2

[6] = tested on: ED1 positive cells; assay: Immunohistochemical staining for ED1 positive cells (macrophage infiltration) in glomeruli and interstitium; conditions: 12 weeks of treatment, kidney sections
Description: as §2

[7] = tested on: PAN-nephropathic rats; assay: Acute measurements of renal hemodynamics and excretory function at 12 weeks; conditions: 12 weeks of treatment
Description: as §1
At 12 weeks into treatment, animals were anesthetized with pentobarbital (45 mg/kg i.p.) and instrumented for measurements of renal hemodynamics and excretory function. Two polyethylene (PE)-50 catheters were inserted into left jugular vein for delivery of supplemental anesthetics and saline infusion (50 μl/min), respectively. Another PE-50 catheter was inserted into left carotid artery and connected to a blood-pressure analyzer (Micro-Med., Inc., Louisville, Ky.) for continuous measurement of blood pressure and heart rate. A PE-10 catheter was inserted into the left ureter to facilitate collection of urine, and a flow probe (Model 1RB; Transonic Systems, Inc., Ithaca, N.Y.) was placed on the left renal artery for determination of renal blood flow, which was used to calculate renal vascular resistance. Next, an infusion of ^14C-inulin (0.035 μCi/20 μl saline/min) was initiated and after 60 minutes, two 30-minute clearance periods were conducted. A mid-point blood sample (300 μl) was collected and plasma and urine ^14C-inulin radioactivity was measured. Renal clearance of ^14C-inulin was calculated as an estimate of glomerular filtration rate.

SMILES: C[C@]12CC[C@@H]3c4cc(O)c(O)cc4CC[C@H]3[C@@H]1CC[C@@H]2O [2-OHE, 2-hydroxyestradiol]
- Reduction of PAN-induced mortality ([1]; 2-hydroxyestradiol 10 μg/kg/hour by osmotic minipump): 66%
- Animals died during the treatment ([1]; n=13 per group): 2 animals
- Plasma testosterone levels [2]: 0.91 ± 0.22 ng/mL
- Glomerular collagen IV, labeling index (in words, FIGS. 5 and 6) [3]: significantly reduced the labeling index of glomerular immunoreactive collagen IV
- Body Weight ([4]; 0 wks of treatment (baseline)): 291 ± 5 g
- Creatinine Excretion ([4]; 0 wks of treatment (baseline)): 13.0 ± 1.0 mg/day
- FE - K+ (fractional excretion of potassium) ([4]; 0 wks of treatment (baseline)): 11.6 ± 1.4%
- FE - Na+ (fractional excretion of sodium) ([4]; 0 wks of treatment (baseline)): 0.18 ± 0.03%
- Fluid Intake ([4]; 0 wks of treatment (baseline)): 5.37 ± 0.25 mL/h/kg
- Food Intake ([4]; 0 wks of treatment (baseline)): 76 ± 2 g/kg/day
- Plasma Cholesterol ([4]; 0 wks of treatment (baseline)): 51.2 ± 2.2 mg/dL
- Potassium Excretion ([4]; 0 wks of treatment (baseline)): 7.54 ± 0.52 mEq/day/kg
- Sodium Excretion ([4]; 0 wks of treatment (baseline)): 3.35 ± 0.18 mEq/day/kg
- Urine Volume ([4]; 0 wks of treatment (baseline)): 1.68 ± 0.167 mL/h/kg
- Creatinine Excretion ([4]; 3 wks of treatment): 10.9 ± 0.7 mg/day
- FE - K+ (fractional excretion of potassium) ([4]; 3 wks of treatment): 32.1 ± 4.4 %
- FE - Na+ (fractional excretion of sodium) ([4]; 3 wks of treatment): 0.50 ± 0.10%
- Fluid Intake ([4]; 3 wks of treatment): 7.04 ± 0.667 mL/h/kg
- Food Intake ([4]; 3 wks of treatment): 75 ± 4 g/kg/day
- Plasma Cholesterol ([4]; 3 wks of treatment): 315 ± 39.3 mg/dL
- Potassium Excretion ([4]; 3 wks of treatment): 12.3 ± 0.61 mEq/day/kg
- Sodium Excretion ([4]; 3 wks of treatment): 5.76 ± 0.57 mEq/day/kg
- Urine Volume ([4]; 3 wks of treatment): 3.62 ± 0.292 mL/h/kg
- Creatinine Excretion ([4]; 6 wks of treatment): 9.8 ± 0.7 mg/day
- FE - K+ (fractional excretion of potassium) ([4]; 6 wks of treatment): 17.3 ± 2.5 %
- FE - Na+ (fractional excretion of sodium) ([4]; 6 wks of treatment): 0.34 ± 0.04%
- Fluid Intake ([4]; 6 wks of treatment): 5.92 ± 0.5 mL/h/kg
- Food Intake ([4]; 6 wks of treatment): 60 ± 5 g/kg/day
- Plasma Cholesterol ([4]; 6 wks of treatment): 248.3 ± 19.3 mg/dL
- Potassium Excretion ([4]; 6 wks of treatment): 9.17 ± 0.63 mEq/day/kg
- Sodium Excretion ([4]; 6 wks of treatment): 4.21 ± 0.43 mEq/day/kg
- Urine Volume ([4]; 6 wks of treatment): 2.99 ± 0.292 mL/h/kg
- Creatinine Excretion ([4]; 11 wks of treatment): 12.8 ± 2.8 mg/day
- FE - K+ (fractional excretion of potassium) ([4]; 11 wks of treatment): 29.7 ± 1.7 %
- FE - Na+ (fractional excretion of sodium) ([4]; 11 wks of treatment): 0.37 ± 0.04%
- Fluid Intake ([4]; 11 wks of treatment): 6.12 ± 0.583 mL/h/kg
- Food Intake ([4]; 11 wks of treatment): 58 ± 6 g/kg/day
- Plasma Cholesterol ([4]; 11 wks of treatment): 340.6 ± 27.3 mg/dL
- Potassium Excretion ([4]; 11 wks of treatment): 8.36 ± 1.25 mEq/day/kg
- Sodium Excretion ([4]; 11 wks of treatment): 3.12 ± 0.66 mEq/day/kg
- Urine Volume ([4]; 11 wks of treatment): 3.44 ± 0.312 mL/h/kg
- Creatinine clearance (in words, FIGS. 1B and 1C) ([4]; chronic treatment): attenuated the decline in creatinine clearance caused by PAN
- Plasma creatinine levels (in words, FIG. 1A) ([4]; chronic treatment): attenuated PAN-induced increases in plasma creatinine levels
- UPE corrected for creatinine clearance (UPE/CrCl; in words, FIG. 2B) ([4]; chronic treatment): this effect became even more significant
- Urinary protein excretion (UPE; in words, FIG. 2A) ([4]; chronic treatment): reduced PAN-induced increases in urinary protein excretion
- Labeling index of glomerular immunoreactive PCNA (in words, FIG. 3) [5]: significantly reduced the labeling index of glomerular immunoreactive PCNA
- Number of ED1 positive cells in glomeruli and interstitium (in words, FIG. 4) [6]: significantly (P<0.001) reduced the number of inflammatory cells in glomeruli and in the interstitium
- Blood pressure (in words) [7]: abolished PAN-induced changes in blood pressure
- GFR, inulin clearance (in words) [7]: significantly attenuated PAN-induced changes in GFR
- Hematocrit [7]: 30 ± 3%
- Left Kidney [7]: 2.34 ± 0.09 g
- Glomerular Filtration Rate ([7]; 14C-inulin clearance): 0.54 ± 0.06^b ml/min/g kidney
- Body Weight ([7]; acute experiment): 353 ± 15
- Mean Blood Pressure ([7]; anesthetized): 138.2 ± 4^b mm Hg
- Renal Blood Flow ([7]; anesthetized): 2.80 ± 0.18 ml/min/g kidney
- Renal Plasma Flow ([7]; anesthetized): 1.96 ± 0.12 ml/min/g kidney
- Renal Vascular Resistance ([7]; anesthetized): 58.5 ± 4.5 mm Hg/ml/min/g kid
- Urine Volume ([7]; anesthetized): 3.33 ± 0.26 μl/min/g kidney
